Laboratory results taken from patent US20090215778A1, “Alpha-substituted Arylmethyl Piperazine Pyrazolo [1,5-alpha]Pyrimidine Amide Derivatives” (priority 2007, published 2009).
Like-named read-outs stand apart in the source and are kept apart here.

Tests used:
[1] = biological target: T1, HIV Env six-helix bundle (6HB) structure (Human immunodeficiency virus type 1 group M subtype B, UniProt P04579); test: Six-helix bundle (6HB) assay; assay type: cell-based, HIV-1 (strain RF)
T1 construct: H9 cells chronically infected with HIV-1 (H9/HIV-1RF); endogenous in cells; host or cells: H9 cells chronically infected with HIV-1 strain RF (Env is made from the virus in the infected cells, not by transfection)
T1 sequence (P04579 32-519): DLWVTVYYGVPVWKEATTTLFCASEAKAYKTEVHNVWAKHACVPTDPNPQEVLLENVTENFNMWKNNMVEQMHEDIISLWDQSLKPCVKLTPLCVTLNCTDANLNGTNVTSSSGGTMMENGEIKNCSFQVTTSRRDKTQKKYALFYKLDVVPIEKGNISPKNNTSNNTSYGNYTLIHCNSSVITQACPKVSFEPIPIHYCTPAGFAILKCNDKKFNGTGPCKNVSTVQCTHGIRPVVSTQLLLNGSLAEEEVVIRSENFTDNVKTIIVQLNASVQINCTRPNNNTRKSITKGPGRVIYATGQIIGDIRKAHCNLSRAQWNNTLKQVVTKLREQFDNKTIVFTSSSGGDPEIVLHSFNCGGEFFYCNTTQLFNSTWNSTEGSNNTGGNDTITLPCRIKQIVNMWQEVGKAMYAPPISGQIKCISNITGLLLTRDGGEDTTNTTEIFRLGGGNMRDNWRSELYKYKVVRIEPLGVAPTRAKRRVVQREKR
T1 sequence (P04579 520-865): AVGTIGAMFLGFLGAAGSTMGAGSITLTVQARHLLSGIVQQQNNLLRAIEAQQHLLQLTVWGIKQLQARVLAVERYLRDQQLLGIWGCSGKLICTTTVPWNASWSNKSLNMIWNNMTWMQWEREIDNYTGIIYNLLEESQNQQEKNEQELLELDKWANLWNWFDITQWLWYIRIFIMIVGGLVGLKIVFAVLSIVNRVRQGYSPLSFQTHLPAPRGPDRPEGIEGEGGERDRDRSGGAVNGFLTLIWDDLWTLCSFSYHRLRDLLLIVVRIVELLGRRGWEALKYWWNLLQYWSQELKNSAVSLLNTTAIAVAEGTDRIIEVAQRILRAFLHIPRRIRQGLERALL
Procedure: 3×10^6H9 cells were incubated with 1 mL of HIV-1 (strain RF) supplemented with 40 μg/mL of DEAE-dextran. Virus and cells were incubated together at 37° C. for 2-4 hours with sporadic shaking to resuspend cells. 10 mL of media (RPMI 1640 containing 10% fetal bovine serum and supplemented with 50 μg/mL gentamicin) was then added and the virus-cell coculture was incubated at 37° C. in a humidified 5% CO2 incubator. 3 days post-infection and every 2-3 days thereafter, the infected H9/HIV-1RF cells were centrifuged, the supernatant was removed, and the cells were resuspended at a density of 0.3×10^6 cells/mL in media (RPMI 1640 containing 10% fetal bovine serum and supplemented with 50 μg/mL gentamicin). Chronically infected H9/HIV-1RF cells were used in experiments starting 12-15 days after infection and up to 40 days post-infection.
This assay determines the effect of compounds on conformational changes in HIV envelope glycoprotein (Env) that are required in order for Env to mediate the fusion of the viral and cellular membranes during virus entry and infection. Specifically, this assay measures the effect of compounds on the formation of the HIV Env six-helix bundle (6HB) structure.
H9 cells chronically infected with HIV-1 (H9/HIV-1RF) were resuspended in Stain/Wash Buffer (1% bovine serum albumin, 0.1% sodium azide in phosphate-buffered saline) and aliquoted at 2.5×10^5 cells per well into 96-well V-bottom plates containing various concentrations of test compounds. Cells and compounds were incubated for 30 minutes at 37° C. Recombinant soluble CD4 (sCD4) was then added to a final concentration of 1 μg/mL. Negative control wells contained no sCD4 and no test compound. Positive control wells contained sCD4 but no test compound. The plate was incubated for 1 hour at 37° C. to allow the sCD4 to bind to HIV Env and induce conformational changes in the Env protein. Antibody that is specific for the HIV Env six-helix bundle conformation was then added (1 μL polyclonal rabbit serum per well), and the plate was incubated for an additional 1 hour at 37° C. to permit antibody binding. The cells were then washed once with Stain/Wash Buffer to remove compound and excess antibody. The cells were resuspended in Stain/Wash Buffer containing PE-labeled anti-rabbit secondary antibody (KPL) at 0.25 μg per well. The cells were incubated for 45 min at 4° C. to permit secondary antibody binding. Fluorescence was detected using a BD FACSArray™ bioanalyzer. Compounds that inhibited Env conformational changes were identified as those that decreased primary antibody binding to the six-helix bundle epitope resulting in a decrease in fluorescence signal.

HIV-1, NL4-3 strain = test: Virus infection assay (virus entry and single-cycle infection); assay type: cell-based; settings: Human immunodeficiency virus 1, NL43, TZM-b1, read-out: Nl4
Procedure: TZM-b1 indicator cells were propagated in Dulbecco's Modified Eagle's Medium (DMEM) containing 10% fetal bovine serum (FBS, heat-inactivated) and supplemented with gentamicin (50 ug/mL).
This assay determines the effects of compounds on virus entry and single-cycle infection of cells. In this assay, virus (HIV-1, NL4-3 strain) is added to indicator cells expressing the CD4 receptor and both the CXCR4 and CCR5 co-receptor. The cells contain both a lac Z and a luciferase reporter gene under control of the viral LTR transcription promoter. The cells and virus are incubated together in the presence of various concentrations of test compounds. Successful infection of the cells by the virus permits activation of the reporter gene by the viral Tat transcription factor. The resulting beta-galactosidase or luciferase activity is quantitated using a chemiluminescent substrate and a luminescent plate reader.
Specifically, one day prior to infection, 1.5×10^4 TZM-b1 indicator cells were added to each well of a 96-well microtiter plate. On the day of the experiment, virus (MOI 0.01) in 50 μL of medium (Dulbecco's Modified Eagle's Medium) supplemented with DEAE-dextran at a final concentration of 80 μg/mL was added to cells along with various concentrations of test compound in 50 μL of Dulbecco's Modified Eagle's Medium. Control wells had virus alone. Following a 4 hr incubation at 37° C., complete media [DMEM supplemented with 10% fetal bovine serum (FBS, heat-inactivated) and gentamicin (50 ug/mL)] was added. One day post-infection the level of virus infection was quantitated by detection of β-galactosidase expression using the Gal-Screen system (Applied Biosystems).

Compound | IC50 [1] [nM] | IC50 (HIV-1, NL4-3 strain) [nM] | IC50 ([1]; read-out: 6HB IC50, H9 cells chronically infected with HIV-1 RF, sCD4-induced six-helix bundle formation) [nM]
CCOc1ccc(C(CO)N2CCN(C(=O)c3cnn4c(C(F)(F)F)c(C)c(-c5ccc(OC)cc5)nc34)[C@H](C)C2)cn1 (stereo partly drawn) [methanone, [(2R)-4-[1-(6-ethoxy-3-pyridinyl)-2-hydroxyethyl]-2-methyl-1-piperazinyl][5-(4-methoxyphenyl)-6-methyl-7-(trifluoromethyl)pyrazolo[1,5-α]pyrimidin-3-yl]-] | < 1000 | < 1000 | 
COC(=O)C(c1ccccc1)N1CCN(C(=O)c2cnn3c(C(F)(F)F)c(C)c(-c4ccc(OC)cc4)nc23)[C@H](C)C1 (stereo partly drawn) [1-piperazineacetic acid, 4-[[5-(4-methoxyphenyl)-6-methyl-7-(trifluoromethyl)pyrazolo[1,5-α]pyrimidin-3-yl]carbonyl]-3-methyl-α-phenyl-, methyl ester, (3R)-] | < 1000 | < 1000 | 
COc1ccc(-c2nc3c(C(=O)N4CCN([C@@H](CO)c5cc(C)cs5)C[C@H]4C)cnn3c(C(F)(F)F)c2C)cc1 [methanone, [(2R)-4-[(1S)-2-hydroxy-1-(4-methyl-2-thienyl)ethyl]-2-methyl-1-piperazinyl][5-(4-methoxyphenyl)-6-methyl-7-(trifluoromethyl)pyrazolo[1,5-α]pyrimidin-3-yl]-] | < 1000 | < 1000 | 
COc1ccc(-c2nc3c(C(=O)N4CCN([C@@H](C)c5ccc(C#N)s5)C[C@H]4C)cnn3c(C(F)(F)F)c2C)cc1 [2-thiophenecarbonitrile, 5-[(1S)-1-[(3R)-4-[[5-(4-methoxyphenyl)-6-methyl-7-(trifluoromethyl)pyrazolo[1,5-α]pyrimidin-3-yl]carbonyl]-3-methyl-1-piperazinyl]ethyl]-] | < 1000 | 1100 to 10000 | 
COc1ccc(-c2nc3c(C(=O)N4CCN([C@H](CO)c5ccccc5OC)C[C@H]4C)cnn3c(C(F)(F)F)c2C)cc1 [methanone, [(2R)-4-[(1S)-2-hydroxy-1-(2-methoxyphenyl)ethyl]-2-methyl-1-piperazinyl][5-(4-methoxyphenyl)-6-methyl-7-(trifluoromethyl)pyrazolo[1,5-α]pyrimidin-3-yl]-] | < 1000 | < 1000 | 
COc1ccc(-c2nc3c(C(=O)N4CCN([C@@H](C)c5ccc(NC(N)=O)cc5)C[C@H]4C)cnn3c(C(F)(F)F)c2C)cc1 [urea, N-[4-[(1)-1-[(3R)-4-[[5-(4-methoxyphenyl)-6-methyl-7-(trifluoromethyl)pyrazolo[1,5-α]pyrimidin-3-yl]carbonyl]-3-methyl-1-piperazinyl]ethyl]phenyl]-] | 1100 to 10000 | < 1000 | 
COc1ccc(-c2nc3c(C(=O)N4CCN(C(CO)c5ccc(C(=O)O)s5)C[C@H]4C)cnn3c(C(F)(F)F)c2C)cc1 (stereo partly drawn) [2-thiophenecarboxylic acid, 5-[2-hydroxy-1-[(3R)-4-[[5-(4-methoxyphenyl)-6-methyl-7-(trifluoromethyl)pyrazolo[1,5-α]pyrimidin-3-yl]carbonyl]-3-methyl-1-piperazinyl]ethyl]-] | 1100 to 10000 | > 10100 | 
COc1ccc(-c2nc3c(C(=O)N4CCN([C@@H](C)c5ccc(F)cc5)C[C@H]4C)cnn3c(C(F)(F)F)c2C)cc1 [methanone, [(2R)-4-[(1S)-1-(4-fluorophenyl)ethyl]-2-methyl-1-piperazinyl][5-(4-methoxyphenyl)-6-methyl-7-(trifluoromethyl)pyrazolo[1,5-α]pyrimidin-3-yl]-] | < 1000 | < 1000 | 
COc1ccc(-c2nc3c(C(=O)N4CCN([C@H](CO)c5ccc(C)s5)C[C@H]4C)cnn3c(C(F)(F)F)c2C)cc1 [methanone, [(2R)-4-[(1R)-2-hydroxy-1-(5-methyl-2-thienyl)ethyl]-2-methyl-1-piperazinyl][5-(4-methoxyphenyl)-6-methyl-7-(trifluoromethyl)pyrazolo[1,5-α]pyrimidin-3-yl]-] | < 1000 | < 1000 | 
COc1ccc(-c2nc3c(C(=O)N4CCN(C(c5ccccc5)C(C)O)C[C@H]4C)cnn3c(C(F)(F)F)c2C)cc1 (stereo partly drawn) [methanone, [(2R)-4-(2-hydroxy-1-phenylpropyl)-2-methyl-1-piperazinyl][5-(4-methoxyphenyl)-6-methyl-7-(trifluoromethyl)pyrazolo[1,5-α]pyrimidin-3-yl]-] | < 1000 | < 1000 | 
COc1ccc(-c2nc3c(C(=O)N4CCN(C(CO)c5ccccc5Cl)C[C@H]4C)cnn3c(C(F)(F)F)c2C)cc1 (stereo partly drawn) [methanone, [(2R)-4-[1-(2-chlorophenyl)-2-hydroxyethyl]-2-methyl-1-piperazinyl][5-(4-methoxyphenyl)-6-methyl-7-(trifluoromethyl)pyrazolo[1,5-α]pyrimidin-3-yl]-] | < 1000 | < 1000 | 
COc1ccc(-c2nc3c(C(=O)N4CCN(C(CNS(C)(=O)=O)c5ccccc5)C[C@H]4C)cnn3c(C(F)(F)F)c2C)cc1 (stereo partly drawn) [methanesulfonamide, N-[2-[(3R)-4-[[5-(4-methoxyphenyl)-6-methyl-7-(trifluoromethyl)pyrazolo[1,5-α]pyrimidin-3-yl]carbonyl]-3-methyl-1-piperazinyl]-2-phenylethyl]-, 2,2,2-trifluoroacetate] | < 1000 | < 1000 | 
COc1ccc(-c2cc(C(F)(F)F)n3ncc(C(=O)N4CCN([C@@H](C)c5ccccc5)CC4)c3n2)cc1 [methanone, [5-(4-methoxyphenyl)-7-(trifluoromethyl)pyrazolo[1,5-α]pyrimidin-3-yl][4-(1-phenylethyl)-1-piperazinyl]-] | 1100 to 10000 |  | 
COc1ccc(-c2cc(C(F)(F)F)n3ncc(C(=O)N4CCN([C@H](C)c5ccccc5)CC4)c3n2)cc1 [methanone, [5-(4-methoxyphenyl)-7-(trifluoromethyl)pyrazolo[1,5-α]pyrimidin-3-yl][4-(1-phenylethyl)-1-piperazinyl]-] | 1100 to 10000 |  | 
COc1ccc(-c2nc3c(C(=O)N4CCN([C@@H](CO)c5ccccc5)C[C@H]4C)cnn3c(C(F)(F)F)c2C)cc1 [drawing 44, methanone, [(2R)-4-[(1R)-2-hydroxy-1-phenylethyl]-2-methyl-1-piperazinyl][5-(4-methoxyphenyl)-6-methyl-7-(trifluoromethyl)pyrazolo[1,5-α]pyrimidin-3-yl]-] |  |  | < 1000
CCC(c1ccccc1)N1CCN(C(=O)c2cnn3c(C(F)(F)F)cc(-c4ccc(OC)cc4)nc23)CC1 (stereo not drawn) [methanone, [5-(4-methoxyphenyl)-7-(trifluoromethyl)pyrazolo[1,5-a]pyrimidin-3-yl][4-(1-phenylpropyl)-1-piperazinyl]-] | 1100 to 10000 |  | 
COc1ccc(-c2cc(C(F)(F)F)n3ncc(C(=O)N4CCN(C(c5ccccc5)C(F)(F)F)CC4)c3n2)cc1 (stereo not drawn) [methanone, [5-(4-methoxyphenyl)-7-(trifluoromethyl)pyrazolo[1,5-α]pyrimidin-3-yl][4-(2,2,2-trifluoro-1-phenylethyl)-1-piperazinyl]-] | < 1000 |  | 
COc1ccc(-c2cc(C(F)(F)F)n3ncc(C(=O)N4CCN(C(C)c5ccccc5)CC4)c3n2)cc1 (stereo not drawn) [methanone, [5-(4-methoxyphenyl)-7-(trifluoromethyl)pyrazolo[1,5-α]pyrimidin-3-yl][4-(1-phenylethyl)-1-piperazinyl]-] | 1100 to 10000 |  | 
